One assay concerns ADA gp120. The assay is described as follows: Peptide competition of scFv association with ADA gp120 and CD4-Ig. The assay is classed as binding, HIV-1. The conditions noted are these: scFv of sulfated antibodies. Here is the method: Radiolabeled single-chain antibody constructs (scFv) were incubated with radiolabeled gp120 of the ADA isolate in the presence and absence of soluble CD4. […] Ratios of gp120 precipitated in the presence and absence of soluble CD4 were calculated by densitometry. Radiolabeled scFv was incubated with ADA gp120 and CD4-Ig in the presence of peptide buffer (buffer only), an unsulfated peptide derived from the first 22 residues of the CCR5 amino-terminus (c22), a peptide derived from the first 22 residues of the CCR5 amino-terminus in which tyrosines 10 and 14 are sulfated (s22), or a peptide derived from residues 7-28 of the C5a receptor sulfated at the tyrosines corresponding to residues 11 and 14 of the C5a receptor (c5aR-s22).

For assay [1], the system named is association of gp120 with CCR5. The note with it: peptides previously characterized; cited from earlier work.
Assay [2] has as its system interaction between gp120 and CCR5. The assay is described as follows: Effectiveness of peptides based upon E51.

Ends that are not written are not given here. * marks the point of attachment. SO3H = O=S(=O)(O)*

The source of these data is patent US7488481B2, “Polypeptides derived from anti-HIV-1 gp120 antibodies that abrogate gp120 binding to CCR5” (priority 2003, dated 2009).

Regarding “c5aR-s22: peptide from residues 7-28 of the C5a receptor sulfated at tyrosines 11 and 14”, the “effect of peptide on association of scFv with ADA gp120” value (from here on “effect of peptide … with ADA gp120”) in the assay on ADA gp120 was “very modest inhibition”. The “effect of peptide on the association of gp120 with CCR5” value in assay [1] is recorded as “did not have a noticeable effect”.

For “c22: unsulfated peptide derived from the first 22 residues of the CCR5 amino-terminus (MDYQVSSPIYDINYYTSEPCQK; UniProt P51681 1-22, looked up, fragment)”, the “effect of peptide … with ADA gp120” value in the assay on ADA gp120 was “no significant effect”.

As to “GDYADYDGGYYYDMD (listed as Homo sapiens) [SEQ ID NO:3, shorter peptide based upon E51]”, the “effectiveness compared with the longer sequence SEQ ID NO:4” value in assay [2] is listed as “just as effective as the longer sequence”.

Turning to “s22: peptide from the first 22 residues of the CCR5 amino-terminus in which tyrosines 10 and 14 are sulfated (MDYQVSSPIY(SO3H)DINY(SO3H)YTSEPCQK)”, the “effect of peptide … with ADA gp120” value in the assay with ADA gp120 was “inhibited”.
